In patent US5047397A, “Linear analogs of atrial natriuretic peptides” (California Biotechnology Inc., priority 1988, dated 1991):
*1 amine or outer side, *2 acyl side, *3 side chain or, on linkers, in order; H or OH if unused. Where a SMILES comes first, the peptide text is derived from it. Where no end group is shown, it is not given here. [ ]: non-standard residue; d: D form. The star is where a group is joined. X2 = N=C(N)NCCC[C@@H](C(=O)[*:2])N(CCc1ccc(N[*:3])cc1)[*:1]; Acetyl(2-naphthyloxy) = O=C(COc1ccc2ccccc2c1)*; X10 = O=C(CNc1ccc(C(=O)*)cc1)c1ccc2ccccc2c1; Acetyl(2-naphthyl) = O=C(Cc1ccc2ccccc2c1)*; X4 = O=C(Cc1ccc(NCCc2ccc3ccccc3c2)cc1)*; NH(2S-methylbutyl) = CC[C@H](C)CN*; 2Naphthoyl = O=C(c1ccc2ccccc2c1)*; X1 = O=C(Cc1ccc(N[*:1])cc1)[*:2]; 4Amb = NCc1ccc(C(=O)O)cc1; Orn = NCCC[C@H](N)C(=O)O; X6 = O=C(C(Br)c1ccccc1)*; X9 = O=C(C(Cl)c1ccccc1)*; Inp = O=C(O)C1CCNCC1; BrAc = O=C(CBr)*

Target: T1, specific ANP receptor sites on BASM or BAE cells (Bos taurus, UniProt P10730)
T1 construct: specific receptor sites on BASM or BAE cells; endogenous in cells; host or cells: cultured BASM and BAE cells
T1 sequence (P10730 42-537): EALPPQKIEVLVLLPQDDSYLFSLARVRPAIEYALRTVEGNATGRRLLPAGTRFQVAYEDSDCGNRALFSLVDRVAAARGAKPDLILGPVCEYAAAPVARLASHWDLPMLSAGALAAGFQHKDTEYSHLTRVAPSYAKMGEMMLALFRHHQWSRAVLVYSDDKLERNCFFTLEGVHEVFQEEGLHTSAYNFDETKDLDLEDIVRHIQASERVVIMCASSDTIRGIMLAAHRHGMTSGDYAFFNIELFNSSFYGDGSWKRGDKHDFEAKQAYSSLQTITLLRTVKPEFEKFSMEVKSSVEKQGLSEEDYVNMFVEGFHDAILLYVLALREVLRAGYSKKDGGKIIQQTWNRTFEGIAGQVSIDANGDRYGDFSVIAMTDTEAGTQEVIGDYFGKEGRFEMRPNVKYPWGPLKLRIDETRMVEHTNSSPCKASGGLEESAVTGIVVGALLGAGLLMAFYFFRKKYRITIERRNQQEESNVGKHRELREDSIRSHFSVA
Experiment: Competitive displacement receptor binding of (125I)-rANP(126-150) on cultured cells
Set-up: species or system bovine
Excerpt: Analogous "competitive displacement" receptor binding assays are considered commonplace in the art for examining specific ligand-receptor interactions.
Assuming these ANP analogs act at one or more ANP receptor sites, then increased receptor affinity should reflect increased biological potency.

[1] = concentration of unlabeled peptide displacing 50% of maximal binding of 0.5 nM (125I)-rANP(126-150), BASM or BAE cells

| Molecule | Ki(app) [1] [µM] | Ki(app) (specificity table, unrelated peptide hormones, unit inferred) [µM] | receptor binding / activity as judged by Ki, in words |
| --- | --- | --- | --- |
| CC[C@H](C)[C@H](NC(=O)[C@H](CCCNC(=N)N)NC(=O)[C@H](CC(=O)O)NC(=O)[C@@H](NC(=O)[C@H](CCCNC(=N)N)NC(=O)C1CCN(C(=O)COc2ccc3ccccc3c2)CC1)[C@@H](C)CC)C(N)=O [AP793] ({Acetyl(2-naphthyloxy)-Inp}-RIDRI-NH2) | 0.0768 |  |  |
| CC[C@H](C)[C@H](NC(=O)[C@H](CCCNC(=N)N)NC(=O)[C@H](CC(=O)O)NC(=O)[C@@H](NC(=O)[C@H](CCCNC(=N)N)NC(=O)c1ccc(NCC(=O)c2ccc3ccccc3c2)cc1)[C@@H](C)CC)C(N)=O [AP794] (X10-RIDRI-NH2) | 0.0131 |  |  |
| CC[C@H](C)[C@H](NC(=O)[C@H](CCCNC(=N)N)NC(=O)[C@H](CC(=O)O)NC(=O)[C@@H](NC(=O)[C@H](CCCNC(=N)N)NC(=O)c1ccc(CNC(=O)c2ccc3ccccc3c2)cc1)[C@@H](C)CC)C(N)=O [AP795] ({2Naphthoyl-4Amb}-RIDRI-NH2) | 0.0119 |  |  |
| CC[C@H](C)[C@H](NC(=O)[C@H](CCCNC(=N)N)NC(=O)[C@H](CC(=O)O)NC(=O)[C@@H](NC(=O)[C@H](CCCNC(=N)N)NC(=O)Cc1ccc(NCCc2ccc3ccccc3c2)cc1)[C@@H](C)CC)C(N)=O [AP796] (X4-RIDRI-NH2) | 0.0273 |  |  |
| CC[C@H](C)[C@H](NC(=O)[C@H](CCCNC(=N)N)NC(=O)[C@H](CC(=O)O)NC(=O)[C@@H](NC(=O)[C@H](CCCCN)NC(=O)Cc1ccc(NC(=O)COc2ccc3ccccc3c2)cc1)[C@@H](C)CC)C(N)=O [AP798] ({Acetyl(2-naphthyloxy)}-[X1]KIDRI-NH2) | 0.00395 |  |  |
| CC[C@H](C)[C@H](NC(=O)[C@H](CCCCN)NC(=O)[C@H](CC(=O)O)NC(=O)[C@@H](NC(=O)[C@H](CCCNC(=N)N)NC(=O)Cc1ccc(NC(=O)Cc2ccc3ccccc3c2)cc1)[C@@H](C)CC)C(N)=O [AP799] ({Acetyl(2-naphthyl)}-[X1]RIDKI-NH2) | 0.0036 |  |  |
| CC[C@H](C)[C@H](NC(=O)[C@H](CCCNC(=N)N)NC(=O)[C@H](CC(=O)O)NC(=O)[C@@H](NC(=O)[C@H](CCCCN)NC(=O)Cc1ccc(NC(=O)Cc2ccc3ccccc3c2)cc1)[C@@H](C)CC)C(N)=O [AP800] ({Acetyl(2-naphthyl)}-[X1]KIDRI-NH2) | 0.0029 |  |  |
| CC[C@H](C)[C@H](NC(=O)[C@H](CCCNC(=N)N)NC(=O)[C@H](CC(=O)O)NC(=O)[C@@H](NC(=O)[C@H](CCCCNC(C)=O)NC(=O)Cc1ccc(NC(=O)COc2ccc3ccccc3c2)cc1)[C@@H](C)CC)C(N)=O [AP801] ({Acetyl(2-naphthyloxy)}-[X1]K(Ac)IDRI-NH2) | 0.00395 |  |  |
| CC[C@H](C)[C@H](NC(=O)[C@H](CCCNC(=N)N)NC(=O)[C@H](CC(=O)O)NC(=O)[C@@H](NC(=O)[C@H](CCCCN)NC(=O)Cc1ccc(NC(=O)c2ccc3ccccc3c2)cc1)[C@@H](C)CC)C(N)=O [AP802] (2Naphthoyl-[X1]KIDRI-NH2) | 0.0087 |  |  |
| CC[C@H](C)[C@H](NC(=O)[C@H](CCCNC(=N)N)NC(=O)[C@H](CC(=O)O)NC(=O)[C@@H](NC[C@H](CCCCN)NC(=O)Cc1ccc(NC(=O)Cc2ccc3ccccc3c2)cc1)[C@@H](C)CC)C(N)=O [AP806] | 0.014 |  |  |
| CC[C@H](C)[C@H](NC[C@H](CCCCN)NC(=O)[C@H](CC(=O)O)NC(=O)[C@@H](NC(=O)[C@H](CCCNC(=N)N)NC(=O)Cc1ccc(NC(=O)Cc2ccc3ccccc3c2)cc1)[C@@H](C)CC)C(N)=O [AP807] | 0.112 |  |  |
| CC[C@H](C)[C@H](NC(=O)[C@H](CCCNC(=N)N)NC(=O)[C@H](CC(=O)O)NC(=O)[C@@H](NC[C@H](CCCCN)NC(=O)Cc1ccc(NC(=O)COc2ccc3ccccc3c2)cc1)[C@@H](C)CC)C(N)=O [AP808] | 0.0989 |  |  |
| CC[C@H](C)[C@H](NC(=O)[C@H](CCCNC(=N)N)NC(=O)[C@H](CC(=O)O)NC(=O)[C@@H](NC[C@H](CCCCN)NC(=O)Cc1ccc(NC(=O)c2ccc3ccccc3c2)cc1)[C@@H](C)CC)C(N)=O [AP809] | 0.0147 |  |  |
| CC[C@H](C)CNC(=O)[C@H](CCCNC(=N)N)NC(=O)[C@H](CC(=O)O)NC(=O)[C@@H](NC(=O)[C@H](CCCNC(=N)N)NC(=O)C1CCN(C(=O)COc2ccc3ccccc3c2)CC1)[C@@H](C)CC [AP810] ({Acetyl(2-naphthyloxy)-Inp}-RIDR-{NH(2S-methylbutyl)}) | 0.0141 |  |  |
| CC[C@H](C)CNC(=O)[C@H](CCCNC(=N)N)NC(=O)[C@H](CC(=O)O)NC(=O)[C@@H](NC(=O)[C@H](CCCNC(=N)N)NC(=O)Cc1ccc(NC(=O)c2ccc3ccccc3c2)cc1)[C@@H](C)CC [AP811] (2Naphthoyl-[X1]RIDR-{NH(2S-methylbutyl)}) | 0.00252 |  |  |
| CC[C@H](C)CNC(=O)[C@H](CCCNC(=N)N)NC(=O)[C@H](CC(=O)O)NC(=O)[C@@H](NC(=O)[C@H](CCCNC(=N)N)NCC1CCN(C(=O)COc2ccc3ccccc3c2)CC1)[C@@H](C)CC [AP812] | 0.032 |  |  |
| CC[C@H](C)CNC(=O)[C@H](CCCNC(=N)N)NC(=O)[C@H](CC(=O)O)NC(=O)[C@@H](NC(=O)[C@H](CCCNC(=N)N)NC(=O)Cc1ccc(NC(=O)COc2ccc3ccccc3c2)cc1)[C@@H](C)CC [AP813] ({Acetyl(2-naphthyloxy)}-[X1]RIDR-{NH(2S-methylbutyl)}) | 0.056 |  |  |

| Molecule | Ki(app) [1] [µM] | Ki(app) (specificity table, unrelated peptide hormones, unit inferred) [µM] | receptor binding / activity as judged by Ki, in words |
| --- | --- | --- | --- |
| CC[C@H](C)CNC(=O)[C@H](CCCNC(=N)N)NC(=O)[C@H](CC(=O)O)NC(=O)[C@@H](NC[C@H](CCCCN)NC(=O)Cc1ccc(NC(=O)c2ccc3ccccc3c2)cc1)[C@@H](C)CC [AP814] | 0.033 |  |  |
| CC[C@H](C)[C@H](NC(=O)[C@H](CCCNC(=N)N)NC(=O)[C@H](CC(=O)O)NC(=O)[C@@H](NC(=O)[C@H](CCCN)NC(=O)Cc1ccc(NC(=O)COc2ccc3ccccc3c2)cc1)[C@@H](C)CC)C(N)=O [AP815] ({Acetyl(2-naphthyloxy)}-[X1][Orn]IDRI-NH2) | 0.01 |  |  |
| CC[C@H](C)[C@H](NC(=O)[C@H](CCCNC(=N)N)NC(=O)[C@H](CC(=O)O)NC(=O)[C@@H](NC(=O)[C@H](CCCNC(=N)N)NCCc1ccc(NC(=O)COc2ccc3ccccc3c2)cc1)[C@@H](C)CC)C(N)=O [AP816] (H-[X2](Acetyl(2-naphthyloxy))IDRI-NH2) | 0.0174 |  |  |
| CC[C@H](C)[C@H](NC(=O)[C@H](CCCNC(=N)N)NC(=O)[C@H](CC(=O)O)NC(=O)[C@@H](NC(=O)[C@H](CCCNC(=N)N)NC(=O)Cc1ccc(NC(=O)C(Cl)c2ccccc2)cc1)[C@@H](C)CC)C(N)=O (some centres unmarked) [AP817] (X9-[X1]RIDRI-NH2) | 0.0211 |  |  |
| CC[C@H](C)[C@H](NC(=O)[C@H](CCCNC(=N)N)NC(=O)[C@H](CC(=O)O)NC(=O)[C@@H](NC(=O)[C@H](CCCNC(=N)N)NC(=O)Cc1ccc(NC(=O)C(Br)c2ccccc2)cc1)[C@@H](C)CC)C(N)=O (some centres unmarked) [AP818] (X6-[X1]RIDRI-NH2) | 0.0205 |  |  |
| CC[C@H](C)[C@H](NC(=O)[C@H](CCCNC(=N)N)NC(=O)[C@H](CC(=O)O)NC(=O)[C@@H](NC(=O)[C@H](CCCNC(=N)N)NC(=O)Cc1ccc(NC(=O)[C@H](Cc2ccccc2)NC(=O)CBr)cc1)[C@@H](C)CC)C(N)=O [AP819] (BrAc-F[X1]RIDRI-NH2) | 0.0038 |  |  |
| CC[C@H](C)[C@H](NC(=O)[C@H](Cc1ccc(O)cc1)NC(=O)[C@@H](NC(=O)[C@H](CCCNC(=N)N)NC(=O)[C@@H](N)CC(=O)O)C(C)C)C(=O)N[C@@H](Cc1c[nH]cn1)C(=O)N1CCC[C@H]1C(=O)N[C@@H](Cc1ccccc1)C(=O)O [angiotensin II, reference compound] |  | > 0.5 |  |
| AFGGRIDRI-NH2 [AP103, A--F--G--G--R--I--D--R--I--NH2] | 0.01242 |  |  |
| AFGGRIDRIG-NH2 [AP102, A--F--G--G--R--I--D--R--I--G--NH2] | 0.01404 |  |  |
| AFGGRIDRIGY-NH2 [AP176, A--F--G--G--R--I--D--R--I--G--Y--NH2] | 0.00665 |  |  |
| FGGRIDRI-NH2 [AP119, F--G--G--R--I--D--R--I--NH2] | 0.0089 |  |  |
| FGGRIDRIGA-NH2 [AP126, F--G--G--R--I--D--R--I--G--A--NH2] | 0.00216 |  |  |
| FGGRIDRIGAA-NH2 [AP104, F--G--G--R--I--D--R--I--G--A--A--NH2] | 0.0025 |  |  |
| GGRIDRIGAA-NH2 [AP105, G--G--R--I--D--R--I--G--A--A--NH2] | > 0.2 |  | do not |
| RIDRIG-NH2 [AP125, R--I--D--R--I--G--NH2] | > 0.2 |  | do not |
| YAFGGRIDRIGA-NH2 [AP175, Y--A--F--G--G--R--I--D--R--I--G--A--NH2] | 0.00594 |  |  |
